The source made the active and inactive calls. No cut-off for these calls is given here.
What was measured:
LX-2 [1] = assay: Antifibrotic activity against TGF-beta1 stimulated human LX-2 cells assessed as reduction in COL1A1 expression at 100 uM incubated for 24 hrs by Western blotting analysis; type: functional, cell-based
LX-2 [2] = assay: Antifibrotic activity against TGF-beta1 stimulated human LX-2 cells assessed as reduction in alpha-SMA expression at 100 uM incubated for 24 hrs by Western blotting analysis; type: functional, cell-based
Homo sapiens = species: Homo sapiens; assay: Inhibition of TGF-beta induced his tagged human SMAD2/human SMAD4 interaction at 100 uM incubated for 1 hr followed by anti-His-HRP addition and measured after 1 hr by blocking assay relative to control; settings: time 2.0 hrs
LX-2 [3] = assay: Inhibition of TGF-beta induced SMAD3 phosphorylation level in human LX-2 cells at 100 uM by Western blot analysis; type: functional, cell-based
LX-2 [4] = assay: Inhibition of TGF-beta induced SMAD1/5/8 phosphorylation level in human LX-2 cells at 100 uM by Western blot analysis; type: functional, cell-based
Mus musculus [5] = assay: Anti-fibrotic activity against CCl4-induced liver fibrosis male C57BL/6J mouse model assessed as effect on SMAD3 phosphorylation in liver at 400 microg/kg, ip measured for 3 weeks by Western blot analysis; type: functional, organism-based; settings: dose 400.0 µg/kg
Mus musculus [6] = assay: Anti-fibrotic activity against CCl4-induced liver fibrosis male C57BL/6J mouse model assessed as effect on SMAD1/5/8 phosphorylation in liver at 400 microg/kg, ip measured for 3 weeks by Western blot analysis; type: functional, organism-based; settings: dose 400.0 µg/kg
LX-2 [7] = assay: Downregulation of TGF-beta induced SMAD2 phosphorylation level in human LX-2 cells at 100 uM by Immunoblot analysis; type: functional, cell-based
LX-2 [8] = assay: Downregulation of TGF-beta induced P65 phosphorylation level in human LX-2 cells at 100 uM by Immunoblot analysis; type: functional, cell-based
LX-2 [9] = assay: Downregulation of TGF-beta induced alpha-SMA level in human LX-2 cells at 100 uM by Immunoblot analysis; type: functional, cell-based
LX-2 [10] = assay: Downregulation of TGF-beta induced COL1A1 level in human LX-2 cells at 100 uM by Immunoblot analysis; type: functional, cell-based
[11] = Stability in rat serum measured up to 48 hrs by LC-MS/MS analysis; type: ADME, cell-free

inhibition (Homo sapiens)	Molecule	Activity (LX-2 [1])	Activity (LX-2 [2])	other results
6.5%	H-TRPASFAETS-OH	inactive	inactive	–
51.9%	Ac-TRPASFWETS-OH	inactive	inactive	–
31.9%	H-TRPAQFWETS-OH	inactive	inactive	–
24.2%	H-TRPAEFWETS-OH	inactive	inactive	–
31.3%	H-TRPASNWETS-OH	inactive	inactive	–
27.1%	H-TRPASRWETS-OH	inactive	inactive	–
20.7%	H-TRPASYWETS-OH	inactive	inactive	–
46.2%	H-TRPAAFWETS-OH	Active	Active	–
6.1%	H-TRPADFWETS-OH	inactive	inactive	–
21.3%	H-TRPAWFWETS-OH	inactive	inactive	–
16.3%	H-TRAASFWETS-OH	inactive	inactive	–
35.2%	H-TRPASKWETS-OH	inactive	inactive	–
34.7%	H-TRPAFFWETS-OH	inactive	inactive	–
32.4%	H-TRPASQWETS-OH	inactive	inactive	–
17.4%	H-TRPARFWETS-OH	inactive	inactive	–
60.5%	C[C@H](NC(=O)[C@@H]1CCCN1C(=O)[C@H](CCCNC(=N)N)NC(=O)[C@@H](N)[C@@H](C)O)C(=O)N[C@H](CO)C(=O)N[C@@H](Cc1ccccc1)C(=O)N[C@@H](Cc1c[nH]c2ccccc12)C(=O)N[C@@H](CCC(=O)O)C(=O)N[C@H](C(=O)N[C@@H](CO)C(=O)O)[C@@H](C)O	Active	Active	–
71.3%	C[C@H](NC(=O)[C@@H]1CCCN1C(=O)[C@H](CCCNC(=N)N)NC(=O)[C@@H](N)[C@@H](C)O)C(=O)N[C@@H](CO)C(=O)N[C@H](Cc1ccccc1)C(=O)N[C@@H](Cc1c[nH]c2ccccc12)C(=O)N[C@@H](CCC(=O)O)C(=O)N[C@H](C(=O)N[C@@H](CO)C(=O)O)[C@@H](C)O	Active	Active	Activity (LX-2 [7]): Active; Activity (LX-2 [8]): Active; Activity (LX-2 [9]): Active; Activity (LX-2 [10]): Active; Stability [11]: Stable
14.5%	H-TRPASFWETA-OH	inactive	inactive	–

Continued, molecule first:

Molecule	inhibition (Homo sapiens)	Activity (LX-2 [1])	Activity (LX-2 [2])	other results
H-TRPASFWATS-OH	11.2%	inactive	inactive	–
H-TRPASFWEAS-OH	9.3%	inactive	inactive	–
H-TRPASAWETS-OH	52.7%	Active	Active	–
H-TRPAKFWETS-OH	32.5%	inactive	inactive	–
H-TRPASWWETS-OH	43.8%	inactive	inactive	–
C[C@@H]1NC(=O)[C@@H]2CCCN2C(=O)[C@H](CCCNC(=N)N)NC(=O)[C@H]([C@@H](C)O)NC(=O)[C@H](CO)NC(=O)[C@H]([C@@H](C)O)NC(=O)[C@H](CCC(=O)O)NC(=O)[C@H](Cc2c[nH]c3ccccc23)NC(=O)[C@H](Cc2ccccc2)NC(=O)[C@H](CO)NC1=O	42.7%	Active; Compound Showed Marginal Reduction Compared To M10	Active; Compound Showed Marginal Reduction Compared To M10	–
H-TAPASFWETS-OH	8.6%	inactive	inactive	–
H-TRPASEWETS-OH	10.9%	inactive	inactive	–
H-TRPASDWETS-OH	23.6%	inactive	inactive	–
C[C@@H]1NC(=O)[C@@H]2CCCN2C(=O)[C@H](CCCNC(=N)N)NC(=O)[C@H]([C@@H](C)O)NC(=O)[C@H](CO)NC(=O)[C@H]([C@@H](C)O)NC(=O)[C@H](CCC(=O)O)NC(=O)[C@H](Cc2c[nH]c3ccccc23)NC(=O)[C@H](Cc2ccccc2)NC(=O)[C@@H](CO)NC1=O	27.9%	Active	Active	–
C[C@H](NC(=O)[C@@H]1CCCN1C(=O)[C@H](CCCNC(=N)N)NC(=O)[C@@H](N)[C@@H](C)O)C(=O)N[C@@H](CO)C(=O)N[C@@H](Cc1ccccc1)C(=O)N[C@@H](Cc1c[nH]c2ccccc12)C(=O)N[C@@H](CCC(=O)O)C(=O)N[C@H](C(=O)N[C@@H](CO)C(=O)O)[C@@H](C)O	52.5%	Active	Active	inhibition (LX-2 [3]): inactive; inhibition (LX-2 [4]): inactive; Activity (Mus musculus [5]): inactive; Activity (Mus musculus [6]): inactive
H-TRPASFWETS-NH2	49.8%	inactive	inactive	–
H-ARPASFWETS-OH	12.5%	inactive	inactive	–
H-TRPANFWETS-OH	42.6%	inactive	inactive	–

Source: ChEMBL document CHEMBL6177985, “Discovery of Novel Cyclic Peptides as SMAD2-SMAD4 Interaction Inhibitors for the Treatment of Hepatic Fibrosis” (J Med Chem, 2025)
